Data: ChEMBL document CHEMBL4390686, “Design, Synthesis, and Pharmacokinetic Evaluation of Phosphate and Amino Acid Ester Prodrugs for Improving the Oral Bioavailability of the HIV-1 Protease Inhibitor Atazanavir” (J Med Chem, 2019)
Values after ≈ are worked out from the molar mass of the structure shown.

Legend:
[1] = Cmax in cannulated Sprague-Dawley rat assessed as atazanavir level at 6 mg/kg equiv of atazanavir administered orally by UPLC/MS/MS analysis; format: ADME, organism-based; design: dose 6 mg/kg, route oral; conditions: in vivo, po
[2] = Cmax in cannulated Sprague-Dawley rat assessed as atazanavir level at 30 mg/kg equiv of atazanavir administered orally by UPLC/MS/MS analysis; format: ADME, organism-based; design: dose 30 mg/kg, route oral; conditions: in vivo, po
[3] = Tmax in cannulated Sprague-Dawley rat assessed as atazanavir level at 30 mg/kg equiv of atazanavir administered orally by UPLC/MS/MS analysis; format: ADME, organism-based; conditions: in vivo, po
[4] = AUClast in cannulated Sprague-Dawley rat assessed as atazanavir level at 6 mg/kg equiv of atazanavir administered orally by UPLC/MS/MS analysis; format: ADME, organism-based; design: dose 6 mg/kg, time 0 - last, route oral; conditions: in vivo, po
[5] = AUClast in cannulated Sprague-Dawley rat assessed as atazanavir level at 30 mg/kg equiv of atazanavir administered orally by UPLC/MS/MS analysis; format: ADME, organism-based; design: dose 30 mg/kg, route oral, time 0 - last; conditions: in vivo, po
[6] = Cmin in cannulated Sprague-Dawley rat assessed as atazanavir level at 3 mg/kg equiv of atazanavir administered orally measured after 24 hrs by UPLC/MS/MS analysis; format: ADME, organism-based; conditions: in vivo, po, BLD = below limit of detection
[7] = Cmin in cannulated Sprague-Dawley rat assessed as atazanavir level at 6 mg/kg equiv of atazanavir administered orally measured after 24 hrs by UPLC/MS/MS analysis; format: ADME, organism-based; conditions: in vivo, po, BLD = below limit of detection
[8] = Cmin in cannulated Sprague-Dawley rat assessed as atazanavir level at 30 mg/kg equiv of atazanavir administered orally measured after 24 hrs by UPLC/MS/MS analysis; format: ADME, organism-based; conditions: in vivo, po, read-out: Cmin
[9] = Total AUC in cannulated Sprague-Dawley rat assessed as atazanavir level at 6 mg/kg equiv of atazanavir administered orally by UPLC/MS/MS analysis relative to atazanavir alone; format: ADME, organism-based; conditions: in vivo, po
[10] = Total AUC in cannulated Sprague-Dawley rat assessed as atazanavir level at 30 mg/kg equiv of atazanavir administered orally by UPLC/MS/MS analysis relative to atazanavir alone; format: ADME, organism-based; conditions: in vivo, po
[11] = Drug metabolism in cannulated Sprague-Dawley rat assessed as prodrug to atazanavir ratio at 6 mg/kg equiv of atazanavir administered orally by UPLC/MS/MS analysis; format: ADME, organism-based; conditions: in vivo, po
[12] = Drug metabolism in cannulated Sprague-Dawley rat assessed as prodrug to atazanavir ratio at 30 mg/kg equiv of atazanavir administered orally by UPLC/MS/MS analysis; format: ADME, organism-based; conditions: in vivo, po
[13] = Aqueous solubility of the compound in pH 3 buffer by RP-UPLC analysis; format: physicochemical
[14] = Aqueous solubility of the compound in FeSSIF by RP-HPLC analysis; format: physicochemical
[15] = Ratio of test compound to atazanavir aqueous solubility in pH 4 citrate buffer by RP-UPLC analysis; format: physicochemical
[16] = Ratio of test compound to atazanavir aqueous solubility in pH 5 buffer by RP-UPLC analysis; format: physicochemical
[17] = Ratio of test compound to atazanavir aqueous solubility in pH 6.5 phosphate buffer by RP-UPLC analysis; format: physicochemical
[18] = Stability in simulated gastric fluid assessed as porcine pepsin-mediated compound hydrolysis at 1 mL measured up to 1 hr at pH 1.2 by HPLC analysis; format: ADME, Sus scrofa; conditions: pig, isolated protein, pH 1.2, 1 h
[19] = Elimination half life in rat hepatocytes at 1 uM in absence of esterase inhibitor PMSF/CYP450 inhibitor ABT; format: ADME, cell-based, Hepatocyte; conditions: read-out: beta t1/2
[20] = Elimination half life in rat hepatocytes at 1 uM in presence of esterase inhibitor PMSF; format: ADME, cell-based, Hepatocyte; conditions: with PMSF (esterase inhibitor), read-out: beta t1/2
[21] = Prodrug conversion in rat hepatocytes assessed as pseudo first order rate constant for atazanavir formation at 1 uM in absence of esterase inhibitor PMSF/CYP450 inhibitor ABT; format: ADME, cell-based, Hepatocyte
[22] = Prodrug conversion in rat hepatocytes assessed as pseudo first order rate constant for atazanavir formation at 1 uM in presence of CYP450 inhibitor ABT; format: ADME, cell-based, Hepatocyte
[23] = Prodrug conversion in rat hepatocytes assessed as pseudo first order rate constant for atazanavir formation at 1 uM in presence of esterase inhibitor PMSF/CYP450 inhibitor ABT; format: ADME, cell-based, Hepatocyte
[24] = Drug recovery in intestinal content of closed loop rat intestinal model at 1 mg/kg administered as cassette dose by LC/MS analysis; format: ADME, organism-based; conditions: in vivo
[25] = Half life in rat whole blood at 1 uM by UPLC-MS/MS analysis; format: ADME, tissue-based
[26] = target: T1, UDP-glucuronosyltransferase 1A1 (Homo sapiens, UniProt P22309); test: Inhibition of recombinant human UGT1A1 using bilirubin as substrate preincubated for 5 mins followed by substrate addition and measured after 40 mins by LC-MS/MS analysis; format: ADME
T1 sequence (P22309 whole entry): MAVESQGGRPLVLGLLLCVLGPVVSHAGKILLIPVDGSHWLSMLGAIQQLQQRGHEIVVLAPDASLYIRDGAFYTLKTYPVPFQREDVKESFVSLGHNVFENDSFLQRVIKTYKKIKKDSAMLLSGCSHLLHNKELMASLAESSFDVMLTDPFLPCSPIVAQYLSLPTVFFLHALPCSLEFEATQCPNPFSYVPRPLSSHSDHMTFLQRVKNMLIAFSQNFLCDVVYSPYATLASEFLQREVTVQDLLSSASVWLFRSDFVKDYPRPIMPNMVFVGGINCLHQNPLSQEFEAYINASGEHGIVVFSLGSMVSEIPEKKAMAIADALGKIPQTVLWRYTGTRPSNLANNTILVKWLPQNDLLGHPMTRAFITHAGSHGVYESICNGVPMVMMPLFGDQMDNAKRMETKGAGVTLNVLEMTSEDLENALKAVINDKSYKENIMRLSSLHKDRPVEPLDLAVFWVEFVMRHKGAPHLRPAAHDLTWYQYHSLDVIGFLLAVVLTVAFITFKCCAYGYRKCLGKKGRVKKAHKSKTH

[27] = target: T1, UDP-glucuronosyltransferase 1A1; test: Inhibition of UGT1A1 in human liver microsomes using beta-estradiol as substrate preincubated for 5 mins followed by substrate addition and measured after 40 mins by LC-MS/MS analysis; format: ADME
UGT1A1 = target: T2, UGT1A1 (Homo sapiens, UniProt P22309); test: Ratio of test compound IC50 to atazanavir IC50 for UGT1A1 in human liver microsomes; format: ADME; conditions: read-out: Ratio IC50
T2 sequence (P22309 whole entry): T1 sequence (P22309 whole entry)

Protease = Protease (Human immunodeficiency virus 1, UniProt Q9YQ12)
Description: Inhibition of HIV1 protease activity

[28] = rat, in vivo, po, 3 mg/kg
[29] = rat, in vivo, po, 3 mg/kg; remark: listed apart in the source
Description: AUClast in cannulated Sprague-Dawley rat assessed as atazanavir level at 3 mg/kg equiv of atazanavir administered orally by UPLC/MS/MS analysis

physchem [30] = conditions: 30% CH3CN/HCl buffer, pH 1
Description: Half life in pH 1 30%CH3CN/HCl buffer at 50 mM by RP-UPLC analysis

physchem [31] = conditions: 30% CH3CN/acetate buffer, pH 4
Description: Half life in pH 4 30%CH3CN/acetate buffer at 50 mM by RP-UPLC analysis

physchem [32] = conditions: 30% CH3CN/phosphate buffer, pH 6.5
Description: Half life in pH 6.5 30%CH3CN/phosphate buffer at 50 mM by RP-UPLC analysis

physchem [33] = conditions: HCl buffer, pH 1
Description: Aqueous solubility of the compound in pH 1 HCl buffer by RP-UPLC analysis

physchem [34] = conditions: phosphate buffer, pH 7.4
Description: Aqueous solubility of the compound in pH 7.4 phosphate buffer by RP-UPLC analysis

in vitro = conditions: human, Caco-2
Description: Apparent permeability across basolateral to apical side in human Caco2 cells at 2 uM

Chain of Protease (Q9YQ12 whole entry): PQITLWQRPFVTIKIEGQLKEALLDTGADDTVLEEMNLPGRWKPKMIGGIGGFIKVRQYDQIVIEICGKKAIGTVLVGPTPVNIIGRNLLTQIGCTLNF

- Cmax [1]: 550 nM
- Cmax [2]: 4720 nM
- Tmax [3]: 0.8 h
- AUClast [4]: 0.913 µM·h
- AUClast [5]: 19.67 µM·h
- Cmin [6]: Bld
- Cmin [7]: Bld
- concentration [8]: 1 nM
- fold change (FC) [9]: 4.1
- fold change (FC) [10]: 65.3
- Ratio [11]: 0.7
- Ratio [12]: 0.3
- solubility [13]: > 3200 µg/mL
- solubility [14]: > 500 µg/mL
- Ratio [15]: 1100
- Ratio [16]: 1300
- Ratio [17]: 27
- Stability [18]: Stable
- half-life at 1 µM [19]: 0.7 h
- half-life at 1 µM [20]: 1.28 h
- K [21]: 0.0164 min⁻¹
- K [22]: 0.0042 min⁻¹
- K [23]: 0.0014 min⁻¹
- Drug recovery [24]: 32%
- half-life at 1 µM [25]: > 2 h
- IC50 [26]: 2800 nM
- IC50 [27]: 2500 nM
- IC50 (Protease): 4 to 1140 nM
- Cmax [28]: 456 nM
- AUClast [29]: 0.573 µM·h
- half-life at 50000 µM (physchem [30]): > 500 h
- half-life at 50000 µM (physchem [31]): > 500 h
- half-life at 50000 µM (physchem [32]): > 500 h
- solubility (physchem [33]): > 1500 µg/mL
- solubility (physchem [34]): 1 µg/mL (≈ 1.17 µM)
- Papp B→A at 2 µM (in vitro): 13.1 ×10⁻⁶ cm/s
Compound: COC(=O)N[C@H](C(=O)N[C@@H](Cc1ccccc1)[C@H](CN(Cc1ccc(-c2ccccn2)cc1)NC(=O)[C@@H](NC(=O)OC)C(C)(C)C)OC(=O)[C@@H](N)Cc1ccccc1)C(C)(C)C
- selectivity ratio (UGT1A1): 4.2
